Assay results from patent US20110191867A1.

Test system: serum antibodies of test subjects

In the case of “Biotin-aminocaproyl-CRSKVNGQCG-NH4 [Peptide 2C]”, the serum reactions is reported as “Strongest reactivities”.
